{"source": "paper PMC10743726", "about": "“Preclinical Evaluation of a Novel High-Affinity Radioligand [^99mTc]Tc-BQ0413 Targeting Prostate-Specific Membrane Antigen (PSMA)” (International Journal of Molecular Sciences, 2023)", "key": {"PSMA": {"target": "PSMA", "conditions": "read-out: Equilibrium Dissociation Constant, KD; cited from earlier work"}, "[1]": {"test_system": "PSMA-positive PC3-pip xenografts", "experiment": "Biodistribution in PC3-pip tumor-bearing mice", "conditions": "40 pmol/mouse", "description": "All in vivo experiments were carried out on BALB/c nu/nu or NMRI mice purchased from Scanbur A/S (Sollentuna, Sweden). All animal studies were approved by the Ethics Committee for Animal Research in Uppsala (Sweden), following the national legislation on the protection of laboratory animals (permit 5.8.18-00473/2021, approved 26 February 2021). Prostate cancer xenografts expressing PSMA were established in BALB/c nu/nu mice via subcutaneous injection of PC3-pip cell suspension in PBS (10^7 cells/animal in 100 µL). For in vivo specificity control, 10^7 cells/animal PSMA-negative SKOV-3 or PC-3 cells were implanted. […] Four mice per data point were used in in vivo experiments; two mice per data point were used in SPECT/CT (^99mTc-labeled BQ0413) and PET/CT (^68Ga-labeled PSMA-11) imaging experiments.\nEach mouse was intravenously injected with 40 pmol of [^99mTc]Tc-BQ0413 (60 kBq; mass of injected compound was adjusted with unlabeled tracer). The mice were euthanized after lethal intraperitoneal injection of ketamine/xylazine followed by exsanguination 1, 3, and 6 h pi. The organs of interest were collected, weighed, and measured for their activity content using the gamma counter. The uptake activity in organs was calculated as the percentage of injected activity per gram (%IA/g) for blood, salivary gland, lungs, liver, spleen, pancreas, stomach, small intestine, kidneys, tumor, muscle, and bone tissue and as %IA for the remaining carcass and the rest of the intestines with content.\nAnimals were euthanized, organs were collected, and activity uptake was measured according to the protocol described above."}}}
{"compound": "[^177Lu]Lu-PSMA-617", "values": [{"measurement": "Kd", "setting": "PSMA", "value": 0.24, "unit": "nM"}]}
{"compound": "O=C([O-])CN(CCN(CC(=O)[O-])Cc1cc(CCC(=O)NCCCCCC(=O)NCCCC[C@H](NC(=O)N[C@@H](CCC(=O)O)C(=O)O)C(=O)O)ccc1[O-])Cc1cc(CCC(=O)O)ccc1[O-].[68Ga+3].[OH3+]", "note": "[[^68Ga]Ga-PSMA-11]", "values": [{"measurement": "Kd", "setting": "PSMA", "value": "0.5 ± 0.2", "unit": "nM"}, {"measurement": "Activity in GI tract (with content)", "setting": "[1]; 1 h pi", "value": "1.6 ± 0.3", "unit": "%IA/sample"}, {"measurement": "Tumor-to-blood ratio", "setting": "[1]; 1 h pi", "value": "26 ± 9"}, {"measurement": "Tumor-to-bone ratio", "setting": "[1]; 1 h pi", "value": "34 ± 7"}, {"measurement": "Tumor-to-kidneys ratio", "setting": "[1]; 1 h pi", "value": "0.09 ± 0.02"}, {"measurement": "Tumor-to-liver ratio", "setting": "[1]; 1 h pi", "value": "30 ± 14"}, {"measurement": "Tumor-to-lungs ratio", "setting": "[1]; 1 h pi", "value": "7 ± 2"}, {"measurement": "Tumor-to-muscle ratio", "setting": "[1]; 1 h pi", "value": "38 ± 11"}, {"measurement": "Tumor-to-pancreas ratio", "setting": "[1]; 1 h pi", "value": "15 ± 3"}, {"measurement": "Tumor-to-salivary gland ratio", "setting": "[1]; 1 h pi", "value": "5 ± 1"}, {"measurement": "Tumor-to-small intestine ratio", "setting": "[1]; 1 h pi", "value": "42 ± 14"}, {"measurement": "Tumor-to-spleen ratio", "setting": "[1]; 1 h pi", "value": "0.7 ± 0.2"}, {"measurement": "Tumor-to-stomach ratio", "setting": "[1]; 1 h pi", "value": "29 ± 11"}, {"measurement": "Uptake in blood", "setting": "[1]; 1 h pi", "value": "0.8 ± 0.1", "unit": "%IA/g"}, {"measurement": "Uptake in bone", "setting": "[1]; 1 h pi", "value": "0.60 ± 0.06", "unit": "%IA/g"}, {"measurement": "Uptake in kidneys", "setting": "[1]; 1 h pi", "value": "226 ± 40", "unit": "%IA/g"}, {"measurement": "Uptake in liver", "setting": "[1]; 1 h pi", "value": "0.7 ± 0.2", "unit": "%IA/g"}, {"measurement": "Uptake in lungs", "setting": "[1]; 1 h pi", "value": "3.2 ± 0.6", "unit": "%IA/g"}, {"measurement": "Uptake in muscle", "setting": "[1]; 1 h pi", "value": "0.54 ± 0.08", "unit": "%IA/g"}, {"measurement": "Uptake in pancreas", "setting": "[1]; 1 h pi", "value": "1.3 ± 0.2", "unit": "%IA/g"}, {"measurement": "Uptake in salivary gland", "setting": "[1]; 1 h pi", "value": "4.4 ± 0.8", "unit": "%IA/g"}, {"measurement": "Uptake in small intestine", "setting": "[1]; 1 h pi", "value": "0.5 ± 0.1", "unit": "%IA/g"}, {"measurement": "Uptake in spleen", "setting": "[1]; 1 h pi", "value": "28 ± 4", "unit": "%IA/g"}, {"measurement": "Uptake in stomach", "setting": "[1]; 1 h pi", "value": "0.8 ± 0.3", "unit": "%IA/g"}, {"measurement": "Uptake in tumor", "setting": "[1]; 1 h pi", "value": "20 ± 3", "unit": "%IA/g"}, {"measurement": "Uptake in tumor", "setting": "[1]; 3 h pi", "value": "20 ± 3", "unit": "%IA/g"}]}
